Legend:
[1] = molecular target: T1, LATS1 (Homo sapiens, UniProt O95835); assay: Kinase inhibitory activity against LATS1 (ADP quantification); assay type: biochemical; conditions: ATP 400 μM, read-out: kinase inhibitory rate
T1 construct: purchased Carna Biosciences
T1 sequence (O95835 1-1130): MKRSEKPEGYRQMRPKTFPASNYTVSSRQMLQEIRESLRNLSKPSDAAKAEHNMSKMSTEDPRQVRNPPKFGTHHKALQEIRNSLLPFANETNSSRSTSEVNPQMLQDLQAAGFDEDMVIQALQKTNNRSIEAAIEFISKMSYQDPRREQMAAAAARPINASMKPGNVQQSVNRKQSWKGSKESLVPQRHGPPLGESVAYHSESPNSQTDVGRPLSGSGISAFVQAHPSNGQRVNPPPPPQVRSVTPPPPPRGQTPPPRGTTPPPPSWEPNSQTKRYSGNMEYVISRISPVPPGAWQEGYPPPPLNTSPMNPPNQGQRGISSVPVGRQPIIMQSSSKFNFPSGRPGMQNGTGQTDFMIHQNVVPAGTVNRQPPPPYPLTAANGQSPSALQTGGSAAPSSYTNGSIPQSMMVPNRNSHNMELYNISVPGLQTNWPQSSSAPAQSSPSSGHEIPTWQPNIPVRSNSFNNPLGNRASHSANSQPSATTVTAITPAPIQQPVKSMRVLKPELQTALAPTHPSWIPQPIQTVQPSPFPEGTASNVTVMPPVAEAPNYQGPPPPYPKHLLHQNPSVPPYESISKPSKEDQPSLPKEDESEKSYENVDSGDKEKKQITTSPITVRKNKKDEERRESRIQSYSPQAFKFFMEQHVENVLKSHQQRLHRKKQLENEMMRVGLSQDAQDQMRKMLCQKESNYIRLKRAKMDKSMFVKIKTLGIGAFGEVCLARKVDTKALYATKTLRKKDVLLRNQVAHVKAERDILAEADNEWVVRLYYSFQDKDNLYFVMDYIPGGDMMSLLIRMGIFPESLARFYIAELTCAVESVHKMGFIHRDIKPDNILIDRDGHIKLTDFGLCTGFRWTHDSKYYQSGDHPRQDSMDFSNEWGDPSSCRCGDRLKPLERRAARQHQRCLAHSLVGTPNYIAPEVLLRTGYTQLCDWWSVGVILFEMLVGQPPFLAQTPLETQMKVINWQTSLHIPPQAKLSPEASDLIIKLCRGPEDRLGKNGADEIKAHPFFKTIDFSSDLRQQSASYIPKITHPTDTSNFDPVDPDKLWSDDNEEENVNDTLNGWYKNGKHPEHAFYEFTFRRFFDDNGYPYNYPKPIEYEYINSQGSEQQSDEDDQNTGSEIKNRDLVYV
Method: (§1) Evaluation of the inhibitory activity (calculation of kinase inhibitory rate) of the compound of the present invention against LATS1 and LATS2 (manufactured by Carna Biosciences) was performed. The activity was measured using the Kinase Assay method described below. The test concentration of the compound of the present invention was set such that the final concentration was 100 nM or 1000 nM.
(§2) As the analysis method of the data, the mean signal of the control well containing reaction components other than the compound of the present invention was set to 0% inhibition, the mean signal without enzyme addition was set to 100% inhibition, and the inhibition rate was calculated from the mean signal of 2 wells of each compound.
(§3) 2 μL of a compound of the present invention solution at 2.5-fold concentration, 1 μL of substrate at 5-fold concentration (SGKtide: NH2-CKKRNRRLSVA-COOH, manufactured by SignalChem), ATP (manufactured by Sigma-Aldrich), MgCl2 (manufactured by FUJIFILM Wako Pure Chemical Corporation) solution (final concentration 10 μM, 400 μM and 5 mM, respectively), and 2 μL of kinase solution at 2.5-fold concentration (final concentration of LATS1 or LATS2 5 μg/mL), each prepared with assay buffer (20 mM HEPES, 0.01% Triton X-100, 2 mM DTT, 50 μg/mL BSA, pH 7.5), were mixed in the wells of a polypropylene 384-well plate (manufactured by Greiner Bio-One, #784900) and reacted at room temperature for 5 hr. To the solution was added 5 μL detection solution [Fluorospark (registered trade mark) Kinase/ADP Multi-Assay Kit; manufactured by FUJIFILM Wako Pure Chemical Corporation], and the mixture was reacted at room temperature for 30 min. Successively, 5 μL of a reaction quenching liquid [Fluorospark (registered trade mark) Kinase/ADP Multi-Assay Kit; manufactured by FUJIFILM Wako Pure Chemical Corporation] was added to discontinue the reaction. Thereafter, the ADP concentration of the reaction solution was quantified by EnSpire (manufactured by PerkinElmer) to detect the kinase reaction.

[2] = molecular target: T2, LATS2 (Homo sapiens, UniProt Q9NRM7); assay: Kinase inhibitory activity against LATS2 (ADP quantification); assay type: biochemical; conditions: ATP 400 μM, read-out: kinase inhibitory rate
T2 construct: purchased Carna Biosciences
T2 sequence (Q9NRM7 1-1088): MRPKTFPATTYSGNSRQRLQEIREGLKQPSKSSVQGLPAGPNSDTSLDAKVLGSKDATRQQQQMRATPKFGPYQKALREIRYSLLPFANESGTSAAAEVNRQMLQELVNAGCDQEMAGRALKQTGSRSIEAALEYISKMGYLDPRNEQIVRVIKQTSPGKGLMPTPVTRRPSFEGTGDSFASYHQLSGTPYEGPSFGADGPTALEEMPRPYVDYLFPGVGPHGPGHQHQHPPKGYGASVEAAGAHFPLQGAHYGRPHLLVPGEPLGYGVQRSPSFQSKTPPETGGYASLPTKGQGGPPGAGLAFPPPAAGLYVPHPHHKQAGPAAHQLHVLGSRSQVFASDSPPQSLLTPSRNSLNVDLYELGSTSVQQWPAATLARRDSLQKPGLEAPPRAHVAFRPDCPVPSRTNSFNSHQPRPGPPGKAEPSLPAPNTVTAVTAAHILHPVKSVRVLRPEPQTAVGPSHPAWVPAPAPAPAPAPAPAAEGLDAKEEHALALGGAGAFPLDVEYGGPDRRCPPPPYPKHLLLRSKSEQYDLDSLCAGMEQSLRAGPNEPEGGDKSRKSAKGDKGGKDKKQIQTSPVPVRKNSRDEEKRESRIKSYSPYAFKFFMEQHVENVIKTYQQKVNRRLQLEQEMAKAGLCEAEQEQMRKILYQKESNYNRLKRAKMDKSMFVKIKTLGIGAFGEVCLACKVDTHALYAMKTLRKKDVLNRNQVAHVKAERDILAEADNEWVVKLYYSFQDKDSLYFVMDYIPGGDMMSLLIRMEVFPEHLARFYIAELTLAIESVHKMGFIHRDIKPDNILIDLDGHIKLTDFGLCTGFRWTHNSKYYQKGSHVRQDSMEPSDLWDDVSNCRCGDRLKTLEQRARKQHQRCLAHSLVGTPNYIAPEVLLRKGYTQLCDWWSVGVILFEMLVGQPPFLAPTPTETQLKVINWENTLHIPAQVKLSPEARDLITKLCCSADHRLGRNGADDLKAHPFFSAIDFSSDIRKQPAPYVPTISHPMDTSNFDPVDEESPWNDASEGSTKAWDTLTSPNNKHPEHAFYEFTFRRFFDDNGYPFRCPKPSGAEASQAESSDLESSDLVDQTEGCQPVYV
Method: as §1, §2, §3

inhibition at 0.1 µM ([1]; final concentration 100 nM): ≥ 40%
inhibition at 1 µM ([1]; final concentration 1000 nM): ≥ 40%
inhibition at 0.1 µM ([2]; final concentration 100 nM): ≥ 40%
inhibition at 1 µM ([2]; final concentration 1000 nM): ≥ 40%
Structure (SMILES): CC/C(=N\NC(=O)C(C)Nc1cccnc1)c1ccc(O)c(C)c1O (stereo not shown) [A-004, (E)-N′-(1-(2,4-dihydroxy-3-methylphenyl)propylidene)-2-(pyridin-3-ylamino)propanehydrazide]
